Consider 13 compounds from ChEMBL document CHEMBL5465560, “Selectivity Literature for EUbOPEN Chemogenomic Library” (2024).

Bounds are passed on as bounds.

Assay [1] deals with Platelet-derived growth factor receptor alpha (Homo sapiens), P16234 [T674I]. Put plainly: (§1) Selectivity interaction (ProQinase) EUB0000171b PDGFRA.
For assay [2], the system named is Platelet-derived growth factor receptor alpha (Homo sapiens), P16234 [V561D]. The description is as §1.
Assay [3] deals with Platelet-derived growth factor receptor alpha (Homo sapiens), P16234 [D842V]. The description is as §1.
Sequence of Platelet-derived growth factor receptor alpha (Homo sapiens), P16234 [D842V] (P16234 whole entry D842V): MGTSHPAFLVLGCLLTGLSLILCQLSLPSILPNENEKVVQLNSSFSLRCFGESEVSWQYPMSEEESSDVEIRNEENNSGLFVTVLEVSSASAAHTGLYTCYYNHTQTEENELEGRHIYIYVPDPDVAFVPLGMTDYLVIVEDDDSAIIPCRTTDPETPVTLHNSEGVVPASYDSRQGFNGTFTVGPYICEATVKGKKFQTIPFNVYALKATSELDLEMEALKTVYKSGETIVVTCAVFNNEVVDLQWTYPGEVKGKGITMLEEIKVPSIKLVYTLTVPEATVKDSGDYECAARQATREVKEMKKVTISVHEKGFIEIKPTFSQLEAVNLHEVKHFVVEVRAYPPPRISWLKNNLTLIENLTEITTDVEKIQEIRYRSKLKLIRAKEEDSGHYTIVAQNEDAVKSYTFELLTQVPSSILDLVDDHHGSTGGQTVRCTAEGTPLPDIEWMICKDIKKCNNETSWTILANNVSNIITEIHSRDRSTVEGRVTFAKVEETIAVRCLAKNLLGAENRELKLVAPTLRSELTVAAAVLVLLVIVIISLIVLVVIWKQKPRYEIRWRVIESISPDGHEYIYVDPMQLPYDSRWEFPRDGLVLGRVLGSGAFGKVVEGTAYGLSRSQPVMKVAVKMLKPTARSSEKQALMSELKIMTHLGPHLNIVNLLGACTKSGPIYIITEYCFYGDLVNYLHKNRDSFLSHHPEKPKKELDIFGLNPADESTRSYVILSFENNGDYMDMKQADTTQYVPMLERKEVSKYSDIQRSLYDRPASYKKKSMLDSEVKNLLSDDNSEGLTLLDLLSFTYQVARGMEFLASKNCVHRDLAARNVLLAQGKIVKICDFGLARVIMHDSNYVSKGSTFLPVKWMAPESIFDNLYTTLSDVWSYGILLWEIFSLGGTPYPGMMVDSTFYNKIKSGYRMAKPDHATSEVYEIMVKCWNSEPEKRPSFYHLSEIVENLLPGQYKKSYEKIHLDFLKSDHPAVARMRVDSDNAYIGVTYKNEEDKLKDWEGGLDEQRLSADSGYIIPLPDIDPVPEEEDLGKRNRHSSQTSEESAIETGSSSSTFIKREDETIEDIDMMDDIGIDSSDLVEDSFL
Assay [4] has as its target Platelet-derived growth factor receptor alpha (Homo sapiens, UniProt P16234). The assay is described as §1.
Assay [5] deals with Serine/threonine-protein kinase 32C (Homo sapiens) (UniProt Q86UX6). The following applies: at 10 µM.
Sequence of Serine/threonine-protein kinase 32C (Homo sapiens) (Q86UX6 whole entry): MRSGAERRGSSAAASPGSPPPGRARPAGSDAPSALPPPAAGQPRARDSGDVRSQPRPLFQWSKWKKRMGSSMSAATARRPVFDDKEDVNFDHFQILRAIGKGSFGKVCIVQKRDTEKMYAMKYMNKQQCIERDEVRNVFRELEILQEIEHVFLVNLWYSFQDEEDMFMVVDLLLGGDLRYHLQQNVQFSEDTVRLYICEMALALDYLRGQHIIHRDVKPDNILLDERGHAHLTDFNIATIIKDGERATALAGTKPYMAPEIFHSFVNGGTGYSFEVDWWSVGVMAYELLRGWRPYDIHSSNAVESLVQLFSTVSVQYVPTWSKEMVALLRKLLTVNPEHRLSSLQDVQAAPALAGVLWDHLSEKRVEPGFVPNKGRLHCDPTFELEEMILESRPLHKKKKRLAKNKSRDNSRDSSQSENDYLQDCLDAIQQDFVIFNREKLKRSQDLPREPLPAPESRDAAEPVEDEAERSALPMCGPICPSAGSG
For assay [6], the target named is T1, Receptor-interacting serine/threonine-protein kinase 4 (Homo sapiens) (UniProt P57078).
T1 sequence (whole entry): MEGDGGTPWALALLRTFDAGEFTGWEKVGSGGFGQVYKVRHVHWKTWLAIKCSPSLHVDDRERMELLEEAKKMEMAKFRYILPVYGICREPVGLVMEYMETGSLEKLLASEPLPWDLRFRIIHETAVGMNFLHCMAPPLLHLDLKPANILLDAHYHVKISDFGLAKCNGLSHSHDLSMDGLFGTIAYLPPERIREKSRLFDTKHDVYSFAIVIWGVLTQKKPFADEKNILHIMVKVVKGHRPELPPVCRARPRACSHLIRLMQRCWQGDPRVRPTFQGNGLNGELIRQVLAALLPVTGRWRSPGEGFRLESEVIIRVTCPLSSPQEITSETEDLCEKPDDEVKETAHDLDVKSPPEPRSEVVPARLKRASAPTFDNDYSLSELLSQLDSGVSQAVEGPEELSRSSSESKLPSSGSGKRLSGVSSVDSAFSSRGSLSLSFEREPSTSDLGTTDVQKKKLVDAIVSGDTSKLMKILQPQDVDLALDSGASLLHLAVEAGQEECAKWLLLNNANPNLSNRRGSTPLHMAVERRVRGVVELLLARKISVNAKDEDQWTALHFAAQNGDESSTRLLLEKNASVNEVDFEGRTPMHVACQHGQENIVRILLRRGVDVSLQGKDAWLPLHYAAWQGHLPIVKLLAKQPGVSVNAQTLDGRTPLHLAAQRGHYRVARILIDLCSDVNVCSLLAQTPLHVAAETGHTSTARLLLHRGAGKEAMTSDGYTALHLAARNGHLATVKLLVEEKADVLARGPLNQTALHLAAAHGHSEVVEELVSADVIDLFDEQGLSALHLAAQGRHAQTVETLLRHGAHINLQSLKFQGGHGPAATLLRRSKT
Kind of assay: Selectivity interaction (Ambit KINOMEscan and KiNATiv profiling in Jurkat cells) EUB0000090b RIPK4. The format is cell-based. The following applies: at 1 µM.

The test system of assay [7] is Tyrosine-protein kinase ABL1 (Homo sapiens), P00519 [T315I]. Put plainly: Selectivity interaction (KinomeScan (DiscoverX)) EUB0001079a ABL1. The note with it: at 1 µM.
For assay [8], the target named is BDNF/NT-3 growth factors receptor (Homo sapiens) (UniProt Q16620). Put plainly: Selectivity interaction (KinomeScan (DiscoverX)) EUB0001049a NTRK2. The following applies: at 1 µM.
In assay [9] the target is T2, Serine/threonine-protein kinase STK11 (Homo sapiens) (UniProt Q15831).
T2 sequence (whole entry): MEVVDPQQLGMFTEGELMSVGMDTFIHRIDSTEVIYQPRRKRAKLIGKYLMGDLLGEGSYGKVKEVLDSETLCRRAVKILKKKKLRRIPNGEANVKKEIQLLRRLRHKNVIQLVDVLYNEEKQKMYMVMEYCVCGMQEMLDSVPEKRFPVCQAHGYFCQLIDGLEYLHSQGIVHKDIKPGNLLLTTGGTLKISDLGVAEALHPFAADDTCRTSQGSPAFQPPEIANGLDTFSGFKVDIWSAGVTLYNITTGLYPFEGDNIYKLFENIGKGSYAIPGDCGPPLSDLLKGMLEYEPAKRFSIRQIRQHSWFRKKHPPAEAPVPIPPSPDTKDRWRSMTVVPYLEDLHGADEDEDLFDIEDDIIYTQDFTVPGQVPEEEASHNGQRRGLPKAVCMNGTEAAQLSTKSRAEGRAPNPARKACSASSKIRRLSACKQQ
Kind of assay: Selectivity interaction (KinomeScan (DiscoverX)) EUB0000655a STK11. The following applies: at 10 µM.

For assay [10], the target named is Mitogen-activated protein kinase 9 (Homo sapiens, UniProt P45984). Kind of assay: Selectivity interaction (KinomeScan (DiscoverX)) EUB0000655a MAPK9. The note with it: at 10 µM.
Assay [11] deals with PAS domain-containing serine/threonine-protein kinase (Homo sapiens) (UniProt Q96RG2). Put plainly: Selectivity interaction (Kinase panel (Z-LYTE Assay)) EUB0001632a PASK. The note with it: at 10 µM.
Assay [12] deals with DNA (cytosine-5)-methyltransferase 1 (Homo sapiens) (UniProt P26358). The note with it: at 10 µM.
The target in assay [13] is Histone-lysine N-methyltransferase, H3 lysine-36 specific (Homo sapiens) (UniProt Q96L73). Kind of assay: Selectivity interaction (Methyltransferase screen (radiometric assays, panel of 8 PRMTs, 21 protein lysine methyltransferases, 3 DNA methyltransferases, and one RNA methyltransferase)) EUB0000272b NSD1.
Sequence of Histone-lysine N-methyltransferase, H3 lysine-36 specific (Homo sapiens) (Q96L73 whole entry): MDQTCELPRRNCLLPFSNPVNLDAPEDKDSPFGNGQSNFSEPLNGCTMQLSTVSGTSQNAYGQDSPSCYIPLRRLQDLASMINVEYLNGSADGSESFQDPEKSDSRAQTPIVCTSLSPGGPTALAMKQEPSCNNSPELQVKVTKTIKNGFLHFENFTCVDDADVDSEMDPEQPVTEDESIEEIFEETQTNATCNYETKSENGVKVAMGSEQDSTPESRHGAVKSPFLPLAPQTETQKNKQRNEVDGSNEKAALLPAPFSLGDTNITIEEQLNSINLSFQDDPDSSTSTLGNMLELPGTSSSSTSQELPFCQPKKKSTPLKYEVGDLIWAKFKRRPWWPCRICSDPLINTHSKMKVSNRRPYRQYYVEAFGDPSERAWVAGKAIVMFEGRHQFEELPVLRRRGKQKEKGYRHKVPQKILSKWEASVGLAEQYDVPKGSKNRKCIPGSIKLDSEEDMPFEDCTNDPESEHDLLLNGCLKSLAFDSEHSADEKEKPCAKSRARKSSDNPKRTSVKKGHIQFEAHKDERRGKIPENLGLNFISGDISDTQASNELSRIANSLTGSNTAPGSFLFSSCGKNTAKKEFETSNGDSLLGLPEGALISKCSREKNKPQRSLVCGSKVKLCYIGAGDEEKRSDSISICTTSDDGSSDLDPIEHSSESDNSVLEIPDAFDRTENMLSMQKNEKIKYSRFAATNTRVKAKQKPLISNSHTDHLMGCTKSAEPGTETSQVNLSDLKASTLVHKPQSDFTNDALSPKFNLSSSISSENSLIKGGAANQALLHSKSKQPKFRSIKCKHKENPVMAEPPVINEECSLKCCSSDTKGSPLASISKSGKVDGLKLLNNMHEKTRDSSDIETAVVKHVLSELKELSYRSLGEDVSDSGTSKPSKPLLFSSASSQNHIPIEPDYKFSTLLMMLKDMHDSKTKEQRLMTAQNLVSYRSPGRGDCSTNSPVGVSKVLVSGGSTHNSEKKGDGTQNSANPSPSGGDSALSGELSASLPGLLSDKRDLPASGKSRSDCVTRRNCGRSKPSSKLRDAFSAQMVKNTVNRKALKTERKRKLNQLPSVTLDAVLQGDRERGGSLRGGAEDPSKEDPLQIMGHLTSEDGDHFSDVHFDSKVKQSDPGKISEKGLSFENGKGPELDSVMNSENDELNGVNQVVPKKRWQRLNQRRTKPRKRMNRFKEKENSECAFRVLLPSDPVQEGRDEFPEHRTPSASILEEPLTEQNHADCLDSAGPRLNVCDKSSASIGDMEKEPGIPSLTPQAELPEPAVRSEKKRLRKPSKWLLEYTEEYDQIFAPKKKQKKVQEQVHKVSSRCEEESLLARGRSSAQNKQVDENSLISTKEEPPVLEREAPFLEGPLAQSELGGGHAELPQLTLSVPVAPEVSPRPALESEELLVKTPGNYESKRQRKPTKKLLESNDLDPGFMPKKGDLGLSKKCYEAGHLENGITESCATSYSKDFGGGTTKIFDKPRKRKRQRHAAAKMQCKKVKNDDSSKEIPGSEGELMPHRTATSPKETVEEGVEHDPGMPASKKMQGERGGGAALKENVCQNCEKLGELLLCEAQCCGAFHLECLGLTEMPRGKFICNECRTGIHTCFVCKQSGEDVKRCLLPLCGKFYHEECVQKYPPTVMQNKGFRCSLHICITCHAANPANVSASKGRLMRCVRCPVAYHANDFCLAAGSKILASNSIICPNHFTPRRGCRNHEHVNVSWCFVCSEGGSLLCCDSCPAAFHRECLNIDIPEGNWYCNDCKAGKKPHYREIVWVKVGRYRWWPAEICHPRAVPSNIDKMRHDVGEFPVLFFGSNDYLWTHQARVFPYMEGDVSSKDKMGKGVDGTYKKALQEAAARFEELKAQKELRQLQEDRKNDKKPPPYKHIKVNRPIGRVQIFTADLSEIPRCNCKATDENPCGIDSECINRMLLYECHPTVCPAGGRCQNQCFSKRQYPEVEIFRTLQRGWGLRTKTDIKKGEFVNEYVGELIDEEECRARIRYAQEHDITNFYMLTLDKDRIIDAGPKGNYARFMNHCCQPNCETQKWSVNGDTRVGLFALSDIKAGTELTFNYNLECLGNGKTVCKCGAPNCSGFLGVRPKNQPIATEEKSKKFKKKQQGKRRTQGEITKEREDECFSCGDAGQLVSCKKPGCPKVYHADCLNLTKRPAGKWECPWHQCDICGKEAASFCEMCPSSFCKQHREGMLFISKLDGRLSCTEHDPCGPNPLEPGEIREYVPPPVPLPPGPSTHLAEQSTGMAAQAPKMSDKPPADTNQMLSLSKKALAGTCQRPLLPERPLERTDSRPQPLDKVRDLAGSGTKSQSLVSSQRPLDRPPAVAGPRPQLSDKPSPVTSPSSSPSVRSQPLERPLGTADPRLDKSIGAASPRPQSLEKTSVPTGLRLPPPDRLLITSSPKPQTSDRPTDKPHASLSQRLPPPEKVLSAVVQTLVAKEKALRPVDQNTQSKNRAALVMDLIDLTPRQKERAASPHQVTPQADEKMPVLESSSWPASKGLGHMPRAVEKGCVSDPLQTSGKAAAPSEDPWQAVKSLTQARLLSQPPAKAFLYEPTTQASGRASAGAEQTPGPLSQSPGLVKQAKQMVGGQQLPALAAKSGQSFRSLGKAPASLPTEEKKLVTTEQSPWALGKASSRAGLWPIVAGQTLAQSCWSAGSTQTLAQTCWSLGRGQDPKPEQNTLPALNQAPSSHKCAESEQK
The target in assay [14] is Serine/threonine-protein kinase PLK1 (Homo sapiens, UniProt P53350). Put plainly: Selectivity interaction (SelectScreen profiling (Invitrogen)) EUB0000607a PLK1. The following applies: at 2 µM.
Assay [15] addresses T3, Interleukin-1 receptor-associated kinase 4 (Homo sapiens) (UniProt Q9NWZ3).
T3 sequence (whole entry): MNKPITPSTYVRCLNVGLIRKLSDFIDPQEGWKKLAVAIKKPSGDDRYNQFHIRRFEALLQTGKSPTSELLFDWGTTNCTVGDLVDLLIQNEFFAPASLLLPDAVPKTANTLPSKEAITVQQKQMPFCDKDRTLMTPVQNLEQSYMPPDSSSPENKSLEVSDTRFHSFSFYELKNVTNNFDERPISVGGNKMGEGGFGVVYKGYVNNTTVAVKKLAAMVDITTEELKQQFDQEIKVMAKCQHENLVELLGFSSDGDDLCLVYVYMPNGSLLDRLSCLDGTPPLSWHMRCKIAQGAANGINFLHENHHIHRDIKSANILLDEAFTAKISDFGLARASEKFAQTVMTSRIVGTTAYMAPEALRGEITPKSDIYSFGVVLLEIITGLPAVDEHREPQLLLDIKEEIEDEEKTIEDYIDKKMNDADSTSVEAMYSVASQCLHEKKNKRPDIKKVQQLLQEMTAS
Kind of assay: Selectivity interaction (Kinase panel (Invitrogen)) EUB0000639a IRAK4. The note with it: at 200 nM.

Assay [16] has as its target Delta-type opioid receptor (Homo sapiens, UniProt P41143). Kind of assay: Selectivity interaction (Opiate Delta receptor assay, human recombinant ) EUB0000877a OPRD1.
For assay [17], the target named is Serine/threonine-protein kinase 32A (Homo sapiens) (UniProt Q8WU08). Kind of assay: Selectivity interaction (KinomeScan (DiscoverX)) EUB0000618a STK32A. The note with it: at 10 µM.

Sequence of Platelet-derived growth factor receptor alpha (P16234 whole entry): as the sequence (P16234 whole entry D842V) above, with V842D counted along it
Sequence of Platelet-derived growth factor receptor alpha (Homo sapiens), P16234 [T674I] (P16234 whole entry T674I): as the sequence (P16234 whole entry D842V) above, with T674I, V842D counted along it
Sequence of Platelet-derived growth factor receptor alpha (Homo sapiens), P16234 [V561D] (P16234 whole entry V561D): as the sequence (P16234 whole entry D842V) above, with V561D, V842D counted along it
Sequence of Delta-type opioid receptor (P41143 whole entry): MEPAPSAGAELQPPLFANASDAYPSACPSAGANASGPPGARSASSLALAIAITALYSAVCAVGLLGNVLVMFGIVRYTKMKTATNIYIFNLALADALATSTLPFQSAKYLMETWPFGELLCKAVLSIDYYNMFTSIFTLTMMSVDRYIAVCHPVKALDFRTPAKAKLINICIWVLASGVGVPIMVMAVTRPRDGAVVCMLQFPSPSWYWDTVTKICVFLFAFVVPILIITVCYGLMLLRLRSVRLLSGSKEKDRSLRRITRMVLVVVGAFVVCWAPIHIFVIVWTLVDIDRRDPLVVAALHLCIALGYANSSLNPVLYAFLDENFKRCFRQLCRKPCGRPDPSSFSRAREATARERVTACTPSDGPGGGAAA

For `C=CC(=O)Nc1cccc(C(=O)Nc2ccc(Nc3cc(-c4[nH]c(SC)nc4C)ccn3)cc2)c1`, the % of control in assay [1] (at 1 µM) stood at 96%; in [1] (at 5 µM), 84%; in assay [2] (at 1 µM) it was 91%; in [2] (at 5 µM), 68%; in [3] (at 1 µM), 68%; in assay [3] (at 5 µM), 41%. Besides, the results for the % of control in [4] (at 1 µM) and in assay [4] (at 5 µM) were 97% and 72%, respectively.

For the compound `Cc1cc([C@@H](C)Nc2ccccc2C(=O)O)c2nc(N3CCOCC3)cc(=O)n2c1` [AZD-6482], the % of control in [5] was found to be 82%.

`CN(C)C/C=C/C(=O)Nc1ccc(C(=O)N2CCCC(Nc3ncc(Cl)c(-c4c[nH]c5ccccc45)n3)C2)cc1` (configuration not stated) yielded a % of control in assay [6] of 86%.

In assay [7], `Nc1cnc(N2CCc3cc(S(=O)(=O)Nc4c(F)cc(Cl)cc4F)cc(N4CCCC4=O)c32)nc1` [TP-020n] gave a % of control of 98%.

In turn, `COc1cc(Nc2nc(C)cc(-c3cnn4nc(OC)ccc34)n2)cc(C(F)(F)F)c1` registered a % of control in [8] of 96%.

As to `CN(C)CCOc1ccc(-c2nc(-c3ccncc3)c(-c3ccc4c(c3)CC/C4=N\O)[nH]2)cc1`, the values for the % of control in assay [9] and in assay [10] were 88% and 5.1%, respectively.

For the compound `Cn1cc(-n2cnc3c(NCc4nc5cc(Cl)c(Cl)cc5[nH]4)nc(N4CCOCC4)nc32)cn1`, in assay [11], the % of control worked out at 2.87%.

Regarding `CNCCN1CCC(c2cc(CN(C)C(=O)c3cccc(Oc4ccccc4)c3)ccn2)CC1`, the % activity in assay [12] is > 90%.

In the case of `Cc1cc(C)cc([C@H]2c3cc(C)ccc3NC(=O)CN2C(=O)c2ccc(Br)s2)c1`, the values for the % of activity in [13] (at 1 µM) and in assay [13] (at 10 µM) were 100% and 102%, respectively.

On to `CNC(=O)Nc1ccc(-c2nc(N3CC4CCC(C3)O4)c3cnn(C4CCC5(CC4)OCCO5)c3n2)cc1`, for which, in [14], the % of inhibition was -4%.

Take `CC[C@@H]1[C@H](F)C(=O)N[C@@H]1COc1nccc2cc(C(N)=O)c(OC)cc12` [ZIMLOVISERTIB]: the % of inhibition in assay [15] is 106%.

`CCC(=O)N1CC[C@H](Nc2ncnc3c2CN(c2cnc(OC)c(C(F)(F)F)c2)CC3)C1` [LENIOLISIB]: the IC50 in [16] is > 30 µM.

For the compound `O[C@H]1CC[C@H](Nc2ncc3nc(Nc4c(F)cc(F)cc4F)n([C@H]4CCOC4)c3n2)CC1`, in [17], the % of control worked out at 62%.
